Source: patent US7265103B2, “Substituted amino isoxazoline derivatives and their use as anti-depressants” (Janssen Pharmaceutica NV., priority 2002, dated 2007)
Counter-ions that a name gives are not always drawn.

Key:
h5-HT transporter = biological target: T1, h5-HT transporter (Homo sapiens, UniProt P31645); assay: Radioligand binding experiment for 5-HT transporter ([3H]paroxetine); conditions: human platelet membranes, [3H]paroxetine 0.5 nM
T1 construct: Human platelet membranes (Oceanix Biosciences Corporation, Hanover, Md., USA) were thawed; tissue Oceanix Biosciences Corporation; host or cells: human platelet membranes
Protocol: (§1) The interaction of the compounds of Formula (I) with hα2-receptors and h5-HT-transporters was assessed in in vitro radioligand binding experiments. In general, a low concentration of a radioligand with a high binding affinity for a particular receptor or transporter is incubated with a sample of a tissue preparation enriched in a particular receptor or transporter or with a preparation of cells expressing cloned human receptors in a buffered medium. During the incubation, the radioligand binds to the receptor or transporter. When equilibrium of binding is reached, the receptor bound radioactivity is separated from the non-bound radioactivity, and the receptor- or transporter-bound activity is counted. The interaction of the test compounds with the receptor is assessed in competition binding experiments. Various concentrations of the test compound are added to the incubation mixture containing the receptor- or transporter preparation and the radioligand. The test compound in proportion to its binding affinity and its concentration inhibits binding of the radioligand. The radioligand used for hα2A, hα2B and hα2C receptor binding was [^3H]-raulwolscine and for the h5-HT transporter was [^3H]paroxetine.
Human platelet membranes (Oceanix Biosciences Corporation, Hanover, Md., USA) were thawed, diluted in buffer (Tris-HCl 50 mM, 120 mM NaCl and 5 mM KCl) and quickly (max 3 s) homogenised with an Ultraturrax homogenizer. In a total volume of 250 μL, 50-100 μg protein was incubated with [^3H]paroxetine (NET-869) (New England Nuclear, USA) (0.5 nM final concentration) with or without competitor for 60 min at 25° C. Incubation was stopped by rapid filtration of the incubation mixture over GF/B filters, pre-wetted with 0.1% polyethyleneamine, using a Filtermatel 96 harvester (Packard, Meriden, Conn.). Filters were rinsed extensively with ice-cold buffer and radioactivity on the filters was counted in a Topcount liquid scintillation counter (Packard, Meriden, Conn.). Data were expressed as cpm. Imipramine (at 1 μM final concentration) was used to determine the non-specific binding.
(§2) Data from assays in the presence of compound were calculated as a percentage of total binding measured in the absence of test compound. Inhibition curves, plotting percent of total binding versus the log value of the concentration of the test compound, were automatically generated, and sigmoidal inhibition curves were fitted using non-linear regression. The pIC50 values of test compounds were derived from individual curves.

hα2C receptor = biological target: T2, hα2C receptor (Homo sapiens, UniProt P18825); assay: Radioligand binding experiment for α2C-adrenergic receptor ([3H]-raulwolscine); conditions: CHO cell membranes with human α2C receptor, [3H]raulwolscine 1 nM; read-out: pIC50 α2C (converted)
T2 construct: expressed in transfected cells; host or cells: CHO cells
T2 sequence (P18825 1-462): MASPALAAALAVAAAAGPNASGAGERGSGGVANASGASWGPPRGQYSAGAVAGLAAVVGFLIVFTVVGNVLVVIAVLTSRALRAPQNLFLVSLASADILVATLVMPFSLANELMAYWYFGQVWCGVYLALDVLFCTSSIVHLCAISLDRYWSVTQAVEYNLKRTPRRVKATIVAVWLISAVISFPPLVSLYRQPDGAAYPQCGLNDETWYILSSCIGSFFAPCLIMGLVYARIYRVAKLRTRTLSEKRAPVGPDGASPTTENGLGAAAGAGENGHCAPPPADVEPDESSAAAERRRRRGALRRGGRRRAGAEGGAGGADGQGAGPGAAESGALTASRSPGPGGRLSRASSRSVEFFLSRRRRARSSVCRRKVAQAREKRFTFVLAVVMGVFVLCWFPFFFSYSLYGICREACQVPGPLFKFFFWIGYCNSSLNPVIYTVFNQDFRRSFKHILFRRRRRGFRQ
Protocol: as §1
(§3) CHO cells, stabile transfected with human adrenergic-α2A-, -α2B or α2C receptor cDNA, were cultured in Dulbecco's Modified Eagle's Medium (DMEM)/Nutrient mixture Ham's F12 (ratio 1:1)(Gibco, Gent-Belgium) supplemented with 10% heat inactivated fetal calf serum (Life Technologies, Merelbeke-Belgium) and antibiotics (100 IU/ml penicillin G, 100 μg/ml streptomycin sulphate, 110 μg/ml pyruvic acid and 100 μg/ml L-glutamine). One day before collection, cells were induced with 5 mM sodiumbutyrate. Upon 80-90% of confluence, cells were scraped in phosphate buffered saline without Ca^2+ and Mg^2+ and collected by centrifugation at 1500×g for 10 min. The cells were homogenised in Tris-HCl 50 mM using an Ultraturrax homogenizer and centrifuged for 10 min at 23,500×g. The pellet was washed once by resuspension and rehomogenization and the final pellet was resuspended in Tris-HCl, divided in 1 ml aliquots and stored at −70° C.
(§4) Membranes were thawed and re-homogenized in incubation buffer (glycylglycine 25 mM, pH 8.0). In a total volume of 500 μl, 2-10 μg protein was incubated with [^3H]raulwolscine (NET-722) (New England Nuclear, USA) (1 nM final concentration) with or without competitor for 60 min at 25° C. followed by rapid filtration over GF/B filter using a Filtermatel 96 harvester (Packard, Meriden, Conn.). Filters were rinsed extensively with ice-cold rinsing buffer (Tris-HCl 50 mM pH 7.4). Filter-bound radioactivity was determined by scintillation counting in a Topcount (Packard, Meriden, Conn.) and results were expressed as counts per minute (cpm). Non-specific binding was determined in the presence of 1 μM oxymetazoline for hα2A- and hα2B receptors and 1 μM spiroxatrine for hα2C receptors.
as §2

hα2A receptor = biological target: T3, hα2A receptor (Homo sapiens, UniProt P08913); assay: Radioligand binding experiment for α2A-adrenergic receptor ([3H]-raulwolscine); conditions: CHO cell membranes with human α2A receptor, [3H]raulwolscine 1 nM; read-out: pIC50 α2A (converted)
T3 construct: expressed in transfected cells; host or cells: CHO cells
T3 sequence (P08913 1-465): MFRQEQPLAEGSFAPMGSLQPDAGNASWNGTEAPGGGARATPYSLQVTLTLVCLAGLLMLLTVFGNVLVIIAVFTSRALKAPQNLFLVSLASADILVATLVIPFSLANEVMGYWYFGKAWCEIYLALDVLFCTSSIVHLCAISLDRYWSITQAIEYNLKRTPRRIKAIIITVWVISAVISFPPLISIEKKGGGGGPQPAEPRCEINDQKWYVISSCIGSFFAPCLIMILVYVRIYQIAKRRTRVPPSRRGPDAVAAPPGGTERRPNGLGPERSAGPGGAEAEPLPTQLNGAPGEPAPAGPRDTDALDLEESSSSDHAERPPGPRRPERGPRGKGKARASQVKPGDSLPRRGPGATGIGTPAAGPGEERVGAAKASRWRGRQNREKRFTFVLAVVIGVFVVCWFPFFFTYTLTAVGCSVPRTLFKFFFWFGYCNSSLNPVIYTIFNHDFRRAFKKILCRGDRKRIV
Protocol: as §1, §3, §4, §2

T1 sequence (P31645 whole entry): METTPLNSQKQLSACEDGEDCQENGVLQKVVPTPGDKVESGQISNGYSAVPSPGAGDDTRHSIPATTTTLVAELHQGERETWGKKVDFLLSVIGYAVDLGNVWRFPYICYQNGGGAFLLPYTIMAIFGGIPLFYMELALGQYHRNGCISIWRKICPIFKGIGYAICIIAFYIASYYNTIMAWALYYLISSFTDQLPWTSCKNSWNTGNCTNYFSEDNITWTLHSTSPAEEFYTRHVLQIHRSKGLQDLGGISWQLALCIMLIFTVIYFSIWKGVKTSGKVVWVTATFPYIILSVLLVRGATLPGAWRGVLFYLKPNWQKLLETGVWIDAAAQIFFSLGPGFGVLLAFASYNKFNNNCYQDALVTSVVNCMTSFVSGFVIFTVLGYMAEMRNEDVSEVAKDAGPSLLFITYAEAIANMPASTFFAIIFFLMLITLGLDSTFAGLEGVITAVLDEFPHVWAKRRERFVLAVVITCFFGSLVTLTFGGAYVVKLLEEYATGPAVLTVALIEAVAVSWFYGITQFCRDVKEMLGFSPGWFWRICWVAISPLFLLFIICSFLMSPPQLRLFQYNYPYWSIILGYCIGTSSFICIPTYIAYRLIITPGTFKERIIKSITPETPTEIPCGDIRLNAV

Compound | melting point [°C] | IC50 (h5-HT transporter) [nM] | IC50 (hα2C receptor) [nM] | IC50 (hα2A receptor) [nM]
CC(=Cc1ccc(F)cc1)CN1CCN(CC2ON=C3c4ccc(N(C)CCN)cc4OCC32)CC1 (stereo not shown) (as salt: HCl) [Compound 19] | 218 to 226 | – | – | –
CC(=Cc1ccc(F)cc1)CN1CCN(CC2ON=C3c4ccc(NCC5CC5)cc4OCC32)CC1 (stereo not shown) [Compound 130] | – | 126 | 25.1 | 126
CC(=Cc1ccccc1)CN1CCN(CC2ON=C3c4ccc(N(C)Cc5ccccc5)cc4OCC32)CC1 (stereo not shown) [Compound 48] | – | 158 | 31.6 | 39.8
COc1cc2c(cc1N1CCC(C)CC1)OCC1C2=NOC1CN1CCN(CC(C)=Cc2ccc(F)cc2)CC1 (stereo not shown) [Compound 103] | – | 126 | 63.1 | 79.4
CC(=Cc1ccc(F)cc1)CN1CCN(CC2ON=C3c4ccc(N(C)CCN)cc4OCC32)CC1 (stereo not shown) [Compound 19] | – | 10 | 2.51 | 12.6
CC(=Cc1ccc(F)cc1)CN1CCN(CC2ON=C3c4ccc(N5CCc6ccccc6C5)cc4OCC32)CC1 (stereo not shown) [Compound 73] | – | 63.1 | 5.01 | 50.1
CCNC(=O)N1CCOc2cc3c(cc21)OCC1C3=NOC1CN1CCN(C/C(C)=C/c2ccccc2)CC1 (stereo not shown) [Compound 16] | – | 7.94 | 0.794 | 7.94
COc1cc2c(cc1N)OCC1C2=NOC1CN1CCN(CC(C)=Cc2cccc(F)c2)CC1 (stereo not shown) [Compound 86] | – | 5.01 | 1.58 | 6.31
CC(=Cc1ccc(F)cc1)CN1CCN(CC2ON=C3c4ccc(N(C)CCNC5CCC5)cc4OCC32)CC1 (stereo not shown) [Compound 111] | – | 12.6 | 6.31 | 25.1
CC(=Cc1ccc(F)cc1)CN1CCN(CC2ON=C3c4ccc(NCCO)cc4OCC32)CC1 (stereo not shown) [Compound 37] | – | 63.1 | 5.01 | 3.16
CCC(C)C(=O)Nc1cc2c(cc1OC)C1=NOC(CN3CCN(CC(C)=Cc4ccc(F)cc4)CC3)C1CO2 (stereo not shown) [Compound 114] | – | 31.6 | 20 | 25.1
CC(=Cc1ccc(F)cc1)CN1CCN(CC2ON=C3c4ccc(N5CCC5=O)cc4OCC32)CC1 (stereo not shown) [Compound 69] | – | 20 | 1.26 | 3.16
CC(=Cc1ccc(F)cc1)CN1CCN(CC2ON=C3c4ccc(NC(N)=O)cc4OCC32)CC1 (stereo not shown) [Compound 137] | – | 20 | 10 | 6.31
CC(=Cc1ccc(F)cc1)CN1CCN(CC2ON=C3c4ccc(N(C)CCNC(C)C(C)C)cc4OCC32)CC1 (stereo not shown) [Compound 110] | – | 5.01 | 5.01 | 39.8
COc1cc2c(cc1N(C)CCO)OCC1C2=NOC1CN1CCN(CC(C)=Cc2ccccc2)CC1 (stereo not shown) [Compound 32] | – | 20 | 0.794 | 3.98
